# Measurements published in US20170045513A1, “METHODS OF DIAGNOSING CELIAC DISEASE USING IP-10” (ImmusanT, Inc., priority 2014, published 2017).
# Non-standard residues stand in square brackets, D forms with d. pGlu = O=C1CC[C@@H](C(=O)O)N1
# Legend:
# Assay type in all cases: cell-based, human
# gluten-reactive T cells [1] = assay: Cytokine release assays taken together (IFNγ ELISpot, whole blood IFNγ and IP-10, in-tube IFNγ ELISA); settings: for cytokine release / immunogenicity of individual peptide: HLA-DQ2.5+ celiac disease subjects after gluten challenge
# Procedure: Gluten peptide solutions for addition to whole blood were arranged according to standardized templates in sterile 96-well U-bottom plates (30 μL/well). Plates were sealed with adhesive ELISA plate cover slips before the plastic lid was replaced and being frozen at −80° C. Whole blood assay (WBA) “medium” (1% DMSO in 90% PBS and 9% normal saline), mitogen (PHA-L, Sigma-Aldrich #L2769; St Louis Mo.) 100 μg/ml in WBA medium, and CEF diluted to 10 μg/ml in PBS with a final concentration of 1% DMSO were frozen separately in sterile cryovials. 96-well plates and cryovials with frozen incubation solutions were shipped on dry ice to the clinical site where blood was collected and incubations performed. Solutions were thawed at room temperature for 10 min just before being added to whole blood. 96-well plates were thawed while being centrifuged at 300 g to avoid surface condensation. A multi-channel pipette was used to efficiently transfer 25 μL of peptide solutions from the original 96-well plate to corresponding wells in a fresh sterile 96-well U-bottom plate. Once incubation solutions had been added, 225 μL of whole blood was added to each well and the plate transferred to incubate for 24 h at 37° C. 5% CO2. […] Individual peptides were incubated at a final assay concentration of 51.1M. Final concentrations of individual peptides assessed in P3 was 0.05-50 μg/mL, and in P14 and P13 pools 0.025-25 μM. The P71 pool was tested at between 0.005-10 pg/mL, the highest tested concentration being the maximal possible not exceeding 0.1% DMSO. Peptide pools, mitogen, and medium only were assessed in triplicate wells, and on Day-6 individual peptides were assessed in duplicate wells. Incubations were terminated after 24 h, and 96-well plates centrifuged at 300 g for 10 min. A total of approximately 90 to 120 μL of plasma was removed from each well taking care to avoid red cell contamination, and transferred into corresponding wells of two further 96-well plates (one with 30 μL/well and the residual in the second plate). Plasmas were frozen at −80° C. and later shipped on dry ice to the central lab where IP-10 and IFNγ multiplex bead assays were performed according to manufacturer's instructions using 25 μL plasma per well (Milliplex® MAP Human Cytokine/Chemokine Magnetic Bead Panel #HCYTOMAG-60k-02; EMD Millipore Corp., Billerica, Mass. 01821) and analysed with the Luminex® MAGPIX® System xPONENT® software (Luminex Corporation, Austin Tex. 78727). Plasma cytokine levels for each assay condition were expressed as the mean analyte concentration of each of the three replicate incubations. Laboratory staff were unaware of the arrangement of peptide solutions incubated with during assay setup and plate counting.
# Aliquots of PBS, P3 peptides diluted in PBS (final concentration in blood 3× 50 or CEF to a final concentration 1 μg/mL were prepared in sterile cryovials (0.11 mL/vial) and stored frozen (−80° C.) until immediately before use. P3, CEF and two PBS aliquots were drawn up in separate sterile 0.3 mL insulin syringes with attached 29G×½″ needle (Terumo, SS*30M2913; Elkton Md. 21921). P3, CEF and one PBS aliquot was injected through the stoppers of three separate QuantiFERON® NIL tubes already containing 1 mL blood, and one aliquot of PBS was injected into a QuantiFERON® MITOGEN tube already containing 1 mL blood. All four tubes containing blood and incubation solution were gently inverted ten-times and transferred to incubate at 37° C. 5% CO2. After for 24 h, tubes were centrifuged 300 g 10 min. Plasma was separated and equal volumes placed in two 1.5 mL cryovials. Frozen plasmas were transferred to the central lab where IFNγ levels were measured in triplicate 50 μL samples by ELISA (MABtech Human IFN-γ ELISA development kit HRP, 3420-1H-6; capture mAb 1-D1K). […]
# gluten-reactive T cells [2] = assay: 96-well plate whole blood cytokine release, IFNγ by MAGPIX multiplex bead assay; settings: for Percent of maximal response to individual gluten peptides, IFNg: after oral gluten challenge; for IFNγ WB MAGPIX % max Mean: n = 8, blood after oral gluten challenge, individual peptides 5 μM (Peptide 2* of P14, Pepscan: 10 μg/mL (5.45 μM))
# gluten-reactive T cells [3] = assay: Overnight IFNγ ELISpot assay with fresh PBMC; settings: for Percent of maximal response to individual gluten peptides, ELISp: after oral gluten challenge; for IFNγ ELISpot % max Mean: n = 5, blood after oral gluten challenge, individual peptides 5 μM (Peptide 2* of P14, Pepscan: 10 μg/mL (5.45 μM))
# Procedure: HLA-DQ2.5-positive celiac disease subjects on gluten-free diet were used in this study. Blood was collected immediately before and 6 days after commencing 3-day oral gluten challenge. Whole blood or PBMCs were incubated with pools or single peptides derived from gluten or recall antigens. IFNγ and IP-10 levels were measured in plasma from the whole blood that was incubated in 96-well plates with peptides or peptide pools. Plasma cytokine/chemokine levels were measured by MAGPIX® multiplex bead assay (IFNγ and IP-10) or by ELISA (IFNγ and IP-10), and PBMC separated from the same blood sample were incubated in overnight IFNγ ELISpot assays.
# Overnight IFNγ ELISpot assays (Human IFN-γ ELISpotPRO kit, transparent, ALP; Mabtech AB, #3420-2APT-10) were performed using PBMC freshly separated from heparinized blood diluted 1:1 in PBS with 2% fetal bovine serum (Stemcell Technologies #07905; Vancouver, BC, V5Z 1B3, Canada) overlaid on density gradient medium (Ficoll-Paque™ PLUS; GE Healthcare Lice Sciences #:17-1440-02) in SepMate™-50 tubes (Stemcell Technologies #15460). PBMC (8 million/mL) were resuspended in serum-free medium with gentamicin and phenol red (X-VIVO™15; Lonza, Walkersville Mass. 21793). PBMC (0.4 million/50 pt/well) and incubated with 50 μL 80% X-vivo15, 0.2% DMSO and 20% PBS in three triplicate wells (“medium only”), or with 50 μL PHA-L 20 μg/ml or peptide at 2× final concentration in 80% X-vivo15, 0.2% DMSO and 20% PBS. Peptide solutions to be added to individual ELISpot wells were prepared in 96-well U-bottom plates (60 pt/well) that were then sealed with adhesive ELISA plate cover slips before replacing the plastic lid and being frozen at −80° C. 96-well plates containing peptide solutions were thawed at room temperature for 10 min while being centrifuged at 300 g immediately prior to being added to ELISpot wells. Peptide pools and mitogen were assessed in triplicate wells, and individual peptides were assessed in duplicate wells. X-VIVO™15 (50 μL) was incubated with 80% X-vivo15, 0.2% DMSO and 20% PBS (50 μL) in triplicate wells (“no PBMC” control). A Zeiss automated ELISpot counter was used to determine spot forming units (SFU) per well (Zellnet Inc., Fort Lee, N J 07024). Laboratory staff were unaware of the arrangement of peptide solutions in ELISpot wells during assay setup and plate counting.
Substance,cytokine release / immunogenicity of individual peptide (gluten-reactive T cells [1]),"Percent of maximal response to individual gluten peptides, IFNg (gluten-reactive T cells [2]; Subject 2, Max. 116 pg/mL)","Percent of maximal response to individual gluten peptides, IFNg (gluten-reactive T cells [2]; Subject 3, Max. 799 pg/mL)","Percent of maximal response to individual gluten peptides, IFNg (gluten-reactive T cells [2]; Subject 4, Max. 136 pg/mL)","Percent of maximal response to individual gluten peptides, IFNg (gluten-reactive T cells [2]; Subject 6, Max. 72 pg/mL)","Percent of maximal response to individual gluten peptides, IFNg (gluten-reactive T cells [2]; Subject 7, Max. 17 pg/mL)","Percent of maximal response to individual gluten peptides, IFNg (gluten-reactive T cells [2]; Subject 8, Max. 47 pg/mL)","Percent of maximal response to individual gluten peptides, IFNg (gluten-reactive T cells [2]; Subject 9, Max. 67 pg/mL)","Percent of maximal response to individual gluten peptides, IFNg (gluten-reactive T cells [2]; Subject 10, Max. 229 pg/mL)",IFNγ WB MAGPIX % max Mean (gluten-reactive T cells [2]) [% max],"Percent of maximal response to individual gluten peptides, ELISp (gluten-reactive T cells [3]; Subject 3, Max. 18 SFU)","Percent of maximal response to individual gluten peptides, ELISp (gluten-reactive T cells [3]; Subject 4, Max. 36 SFU)","Percent of maximal response to individual gluten peptides, ELISp (gluten-reactive T cells [3]; Subject 6, Max. 16 SFU)","Percent of maximal response to individual gluten peptides, ELISp (gluten-reactive T cells [3]; Subject 8, Max. 17 SFU)","Percent of maximal response to individual gluten peptides, ELISp (gluten-reactive T cells [3]; Subject 10, Max. 11 SFU)",IFNγ ELISpot % max Mean (gluten-reactive T cells [3]) [% max],activity relative to Peptide 14 in the cytokine release assays (gluten-reactive T cells [1]; blood collected after oral gluten challenge)
(pE)PEQPEQPFPEQPQQ-amide ([pGlu]PEQPEQPFPEQPQQ-NH2; SMILES NC(=O)CC[C@H](NC(=O)[C@H](CCC(N)=O)NC(=O)[C@@H]1CCCN1C(=O)[C@H](CCC(N)=O)NC(=O)[C@H](CCC(=O)O)NC(=O)[C@@H]1CCCN1C(=O)[C@H](Cc1ccccc1)NC(=O)[C@@H]1CCCN1C(=O)[C@H](CCC(N)=O)NC(=O)[C@H](CCC(=O)O)NC(=O)[C@@H]1CCCN1C(=O)[C@H](CCC(N)=O)NC(=O)[C@H](CCC(=O)O)NC(=O)[C@@H]1CCCN1C(=O)[C@@H]1CCC(=O)N1)C(N)=O) [Peptide 11],weak or not distinguishable from medium alone,0 % of max,0 % of max,0 % of max,0 % of max,0 % of max,0 % of max,0 % of max,0 % of max,0,0 % of max,3 % of max,6 % of max,6 % of max,0 % of max,3,
(pE)QPFPQPEQPFPLQPEQP-amide ([pGlu]QPFPQPEQPFPLQPEQP-NH2; SMILES CC(C)C[C@H](NC(=O)[C@@H]1CCCN1C(=O)[C@H](Cc1ccccc1)NC(=O)[C@@H]1CCCN1C(=O)[C@H](CCC(N)=O)NC(=O)[C@H](CCC(=O)O)NC(=O)[C@@H]1CCCN1C(=O)[C@H](CCC(N)=O)NC(=O)[C@@H]1CCCN1C(=O)[C@H](Cc1ccccc1)NC(=O)[C@@H]1CCCN1C(=O)[C@H](CCC(N)=O)NC(=O)[C@@H]1CCC(=O)N1)C(=O)N[C@@H](CCC(N)=O)C(=O)N1CCC[C@H]1C(=O)N[C@@H](CCC(=O)O)C(=O)N[C@@H](CCC(N)=O)C(=O)N1CCC[C@H]1C(N)=O) [Peptide 6],,58 % of max,10 % of max,54 % of max,4 % of max,2 % of max,6 % of max,69 % of max,20 % of max,28,11 % of max,56 % of max,31 % of max,0 % of max,9 % of max,21,approximately one-half to one-fifth as active as Peptide 14
(pE)SGEGSFQPSQENPQ-amide ([pGlu]SGEGSFQPSQENPQ-NH2; SMILES NC(=O)CC[C@H](NC(=O)[C@@H]1CCCN1C(=O)[C@H](CC(N)=O)NC(=O)[C@H](CCC(=O)O)NC(=O)[C@H](CCC(N)=O)NC(=O)[C@H](CO)NC(=O)[C@@H]1CCCN1C(=O)[C@H](CCC(N)=O)NC(=O)[C@H](Cc1ccccc1)NC(=O)[C@H](CO)NC(=O)CNC(=O)[C@H](CCC(=O)O)NC(=O)CNC(=O)[C@H](CO)NC(=O)[C@@H]1CCC(=O)N1)C(N)=O) [Peptide 9],weak or not distinguishable from medium alone,19 % of max,0 % of max,0 % of max,0 % of max,0 % of max,0 % of max,0 % of max,0 % of max,2,0 % of max,0 % of max,0 % of max,6 % of max,0 % of max,1,
